Data on 18 compounds can be found in US20080255111A1, “Tissue Factor Production Inhibitor” (SANKYO COMPANY LIMITED, priority 2004, published 2008).

Read-outs that look alike come from different tables or passages of the source.

Assay [1] has as its system tissue factor mRNA in LPS-stimulated mouse peritoneal macrophages. Kind of assay: Assay of mouse peritoneal macrophage tissue factor mRNA. The assay is classed as cell-based. As to conditions: for mrna remaining at 1 µM: test compound 1 μM. The method, then:
3 ml of thioglycolate (Sigma Chemical) were administered into the abdominal cavity of male C57BL/6J mice (Charles River) followed 4 days later by intraperitoneal administration of 10 ml of phosphate-buffered saline (hereinafter PBS) containing heparin (Hishiyama Pharmaceutical) at a concentration of 5 U/ml and recovery of intraperitoneal macrophages using a syringe. After centrifuging the recovered macrophages at 1000 rpm and 4° C. for 5 minutes, the supernatant was discarded followed by suspending in RPMI 1640 medium (Gibco Laboratories) containing normal fetal bovine serum (hereinafter FBS) at a concentration of 10%. The macrophages were adjusted to a concentration of 4×10^6 cells/ml, disseminated in 1 ml aliquots in a 12-well plate, and cultured for 3 hours at 37° C. using a CO2 incubator. Subsequently, the cells were washed with PBS, and the medium was replaced with RPMI medium containing lipoprotein-deficient serum (hereinafter LPDS) (Sigma Chemical) at a concentration of 5%. Test compounds dissolved in dimethylsulfoxide (DMSO) at a concentration of 1 μM were added to make a final DMSO concentration of 0.1%, and after warming for 18 hours at 37° C., lipopolysaccharide (hereinafter LPS) (Sigma Chemical) was added to make a concentration of 100 ng/ml. The cells were recovered 6 hours later, RNA was extracted using the Rneasy Mini Kit (Qiagen), and after carrying out a reverse transcription reaction using the First-Strand cDNA Synthesis Kit (Amersham Biosciences), the expressed amounts of tissue factor mRNA and cyclophylin mRNA were measured by quantitative RT-PCR (TaqMan, Applied Biosystems 7700 Sequence Detector).
Quantitative RT-PCR for tissue factor was carried out using the aforementioned TF-1 and TF-2 as primers and TF-P as probes, while quantitative PCR for cyclophilin was carried out using the aforementioned Cyl-1 and Cyl-2 as primers and Cyl-P as probes. Both were carried out by warming for 2 minutes at 50° C. and then for 10 minutes at 95° C., followed by 40 warming cycles consisting of warming for 15 seconds at 95° C. and then for 1 minute at 60° C. The expressed amount of tissue factor mRNA was calculated as a relative value of the expressed amount of cyclophilin mRNA. The expressed amounts of tissue factor mRNA resulting from the test compounds at a concentration of 1 μM or 10 μM based on a value of 100 for the expressed amount of tissue factor mRNA in a case of treatment with DMSO at a concentration of […] are shown in Table 7.

For assay [2], the system named is tissue factor mRNA in kidneys of LPS-dosed mice. Kind of assay: Assay of tissue factor mRNA using LPS-dosed mouse (kidney). It is filed as in vivo. Particulars: male C57BL/6J mice, 10 mg/kg oral once a day for 7 days; LPS 4 mg/kg i.p., kidneys 6 hours later; PG/Tween only = 100. The method, then: Test compounds were dissolved in a solution comprising a 4:1 mixture of propylene glycol (Wako Pure Chemical Industries) and Tween 80 (Kao) (hereinafter PG/Tween) followed by oral administration by gavage for 7 days at 10 mg/kg once a day in the evening to male C57BL/6J mice (Charles River). LPS was administered intraperitoneally at 4 mg/kg at 9:00 AM on the day following the 7th day of administration of PG/Tween, after which the animals were laparotomized under ether anesthesia 6 hours later to excise the kidneys. RNA was extracted from the kidneys using Trizol reagent (Invitrogen). After carrying out a reverse transcription reaction on the resulting RNA using the First-Strand cDNA Synthesis Kit, the expressed amounts of tissue factor mRNA and cyclophilin mRNA were measured in the same manner as the aforementioned Test Example 1. The expressed amounts of tissue factor mRNA for the test compounds when administered at a concentration of 10 mg/kg based on a value of 100 for the expressed amount of tissue factor mRNA in a case of administration of PG/Tween only are shown in Table 8.

Where [3] appears, read: 18 h, then LPS 100 ng/ml for 6 h, relative to cyclophilin mRNA, DMSO treatment = 100, read-out: Expressed Amount of Tissue Factor mRNA.
[4] abbreviates: test compound 10 μM, 18 h, then LPS 100 ng/ml for 6 h, relative to cyclophilin mRNA, DMSO treatment = 100, read-out: Expressed Amount of Tissue Factor mRNA.

Turning to `COc1cc2nc(Cc3ccccc3)n(-c3ccc(C(O)(C(F)(F)F)C(F)(F)F)cc3)c(=O)c2cc1OC` [Compound D, 2-Benzyl-6,7-dimethoxy-3-[4-[2,2,2-trifluoro-1-hydroxy-1-(trifluoromethyl)ethyl]phenyl]-4(3H)-quinazolinone], in assay [1] (setting [3]), the mrna remaining at 1 µM was 39%. Also, the “Expressed Amount of Tissue Factor mRNA” value in assay [2] amounted to 63.5. On to `O=C(O)Cc1cccc(OCCCN(Cc2cccc(C(F)(F)F)c2Cl)CC(c2ccccc2)c2ccccc2)c1` [Compound C, 2-(3-{3-[[2-Chloro-3-(trifluoromethyl)benzyl](2,2-diphenylethyl)amino]propoxy}-phenyl)acetic acid, reference compound], for which, in assay [1] (setting [3]), the mrna remaining at 1 µM is 68.8%. The “Expressed Amount of Tissue Factor mRNA” value in assay [2] amounted to 54.1. Turning to `CC(C)(C)OC(=O)c1c(COc2ccc(-c3ccc(CC(=O)O)s3)cc2)ccc(C(F)(F)F)c1O` [Reference Example 21, [5-(4-{[2-(tert-Butoxycarbonyl)-3-hydroxy-4-(trifluoromethyl)benzyl]oxy}phenyl)-2-thienyl]acetic acid], in assay [1] (setting [3]), the mrna remaining at 1 µM came out at 68.9%. For the compound `CCc1cc(CC(=O)O)ccc1-c1ccc(OCc2ccc(C(F)(F)F)c(O)c2C(=O)OC(C)(C)C)cc1` [Reference Example 15, (4′-{[2-(tert-Butoxycarbonyl)-3-hydroxy-4-(trifluoromethyl)benzyl]oxy}-2-ethyl-1,1′-biphenyl-4-yl)acetic acid], the mrna remaining at 1 µM in assay [1] (setting [3]) is 55.5%. Take `COc1cc2nc(Cc3ccsc3)n(-c3cc(C(O)(C(F)(F)F)C(F)(F)F)ccc3C)c(=O)c2cc1Cl` [Reference Example 1, 6-Chloro-7-methoxy-3-{2-methyl-5-[2,2,2-trifluoro-1-hydroxy-1-(trifluoromethyl)ethyl]phenyl}-2-(3-thienylmethyl)-4(3H)-quinazolinone]: the mrna remaining at 10 µM in assay [1] (setting [4]) was 41.1%.

As for `CC(C)(C)OC(=O)c1c(COc2ccc(-c3ccc(CC(=O)O)cc3)cc2)ccc(C(F)(F)F)c1O` [Reference Example 13, (4′-{[2-(tert-Butoxycarbonyl)-3-hydroxy-4-(trifluoromethyl)benzyl]oxy}-1,1′-biphenyl-4-yl)acetic acid], the mrna remaining at 1 µM in assay [1] (setting [3]) came to 65.4%.

Regarding `COc1cc2nc(Cc3cccc(F)c3)n(-c3cc(C(O)(C(F)(F)F)C(F)(F)F)ccc3C)c(=O)c2cc1OC` [Reference Example 2, 2-(3-Fluorobenzyl)-6,7-dimethoxy-3-{2-methyl-5-[2,2,2-trifluoro-1-hydroxy-1-(trifluoromethyl)ethyl]phenyl}-4(3H)-quinazolinone], the mrna remaining at 10 µM in assay [1] (setting [4]) turned out to be 45.2%. With `CN(C)c1cc(CC(=O)O)ccc1-c1ccc(OCc2ccc(C(F)(F)F)c(O)c2C(=O)OC(C)(C)C)cc1` [Reference Example 31, [4′-{[2-(tert-Butoxycarbonyl)-3-hydroxy-4-(trifluoromethyl)benzyl]oxy}-2-(dimethylamino)-1,1′-biphenyl-4-yl]acetic acid], in assay [1] (setting [4]), the mrna remaining at 10 µM stood at 33.7%. On to `COc1cc(-n2c(Cc3ccccc3)nc3cc(N4CCOCC4)c(F)cc3c2=O)ccc1C(O)(C(F)(F)F)C(F)(F)F` [Compound H, 2-Benzyl-6-fluoro-3-{3-methoxy-4-[2,2,2-trifluoro-1-hydroxy-1-(trifluoromethyl)ethyl]phenyl}-7-(4-morpholinyl)-4(3H)-quinazolinone], for which, in assay [1] (setting [4]), the mrna remaining at 10 µM is 56%. As for `Cc1cc(C(O)(C(F)(F)F)C(F)(F)F)ccc1-n1c(Cc2cccnc2)nc2ccc(-n3cncn3)cc2c1=O` [Compound I, 3-{2-Methyl-4-[2,2,2-trifluoro-1-hydroxy-1-(trifluoromethyl)ethyl]phenyl}-2-(3-pyridylmethyl)-6-(1H-1,2,4-triazol-1-yl)-4(3H)-quinazolinone], in assay [1] (setting [3]), the mrna remaining at 1 µM stood at 48.6%. Regarding `O=c1c2cc(-c3ccccn3)ccc2nc(Cc2ccccc2)n1-c1ccc(C(O)(C(F)(F)F)C(F)(F)F)cc1` [Compound F, 2-Benzyl-6-(2-pyridyl)-3-[4-[2,2,2-trifluoro-1-hydroxy-1-(trifluoromethyl)ethyl]phenyl]-4(3H)-quinazolinone], in assay [1] (setting [3]), the mrna remaining at 1 µM is 76.9%. For `C[C@H](CCC(=O)N(C)C)[C@H]1CCC2C3CC=C4C[C@@H](O)CC[C@]4(C)C3CC[C@@]21C` (stereo partly drawn) [Compound J, N,N-Dimethyl-3β-hydroxycholenamide, reference compound], the mrna remaining at 10 µM in assay [1] (6 h, read-out: Expressed Amount of Tissue Factor mRNA) turned out to be 39.3%. On to `CC(C)c1cc(CC(=O)O)ccc1-c1ccc(OCc2ccc(C(F)(F)F)c(O)c2C(=O)OC(C)(C)C)cc1` [Reference Example 33, (4′-{[2-(tert-Butoxycarbonyl)-3-hydroxy-4-(trifluoromethyl)benzyl]oxy}-2-isopropyl-1,1′-biphenyl-4-yl)acetic acid], for which, in assay [1] (setting [4]), the mrna remaining at 10 µM was found to be 37.2%. Take `CC(C)(C)OC(=O)n1c(COc2ccc(-c3ccc(CC(=O)O)s3)cc2)cc2ccc(F)cc21` [Reference Example 11, [5-(4-{[1-(tert-Butoxycarbonyl)-6-fluoro-1H-indol-2-yl]methoxy}phenyl)-2-thienyl]acetic acid]: the mrna remaining at 1 µM in assay [1] (setting [3]) was 61.1%. For `Cc1c(CC(=O)O)cccc1-c1ccc(OCc2ccc(C(F)(F)F)c(O)c2C(=O)OC(C)(C)C)cc1` [Reference Example 16, (4′-{[2-(tert-Butoxycarbonyl)-3-hydroxy-4-(trifluoromethyl)benzyl]oxy}-2-methyl-1,1′-biphenyl-3-yl)acetic acid], the mrna remaining at 1 µM in assay [1] (setting [3]) turned out to be 65.4%. For `CC(C)(C)OC(=O)c1c(COc2ccc(-c3ccc(CC(=O)O)cc3)cc2)ccc(Cl)c1O` [Reference Example 20, (4′-{[2-(tert-Butoxycarbonyl)-4-chloro-3-hydroxybenzyl]oxy}-1,1′-biphenyl-4-yl)acetic acid], the mrna remaining at 10 µM in assay [1] (setting [4]) is 58.1%. With `CC(C)(C)OC(=O)n1c(COc2ccc(-c3ccc(CC(=O)O)cc3)cc2)cc2ccc(F)cc21` [Reference Example 9, (4′-{[1-(tert-Butoxycarbonyl)-6-fluoro-1H-indol-2-yl]methoxy}-1,1′-biphenyl-4-yl)acetic acid], the mrna remaining at 1 µM in assay [1] (setting [3]) is 66%. The same measure, in the same setting: next, `CC(C)(C)OC(=O)n1c(COc2ccc(-c3ccc(CC(=O)O)c(Cl)c3)cc2)cc2ccc(F)cc21` [Reference Example 10, (4′-([1-(tert-Butoxycarbonyl)-6-fluoro-1H-indol-2-yl]methoxy)-3-chloro-1,1′-biphenyl-4-yl)acetic acid]: 68.9%.
